Experimental findings from PubChem BioAssay (NCI) are described below.

Holding throughout (assay): NCI anticancer screen, dose series, 48 h
Assay [1] relates to SR leukemia.
For assay [2], the system named is HCT-116 colon.
Assay [3] deals with CAKI-1 renal.
The subject of assay [4] is SK-MEL-5 melanoma.
In assay [5] the test system is PC-3 prostate.
The test system of assay [6] is HCT-15 colon.
In assay [7] the test system is OVCAR-3 ovarian.
Assay [8] relates to MOLT-4 leukemia.
For assay [9], the system named is SF-295 CNS.
Assay [10] concerns HT29 colon.
The test system of assay [11] is SNB-19 CNS.
The test system of assay [12] is UO-31 renal.
Assay [13] relates to RXF 393 renal.

Structures are written as SMILES.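 Five compound concentrations were applied to cells in 96-well plates for 48 hours; endpoints were derived by simple linear interpolation of the resulting dose-response curve. TGI denotes the concentration required for complete inhibition of growth.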

For `CCSC1=N/C(=C\c2ccco2)C(Cl)=N1`, the TGI in assay [1], in [2], in assay [3], in assay [4], in [5] and in assay [6] was more than 100 µM throughout. The TGI in assay [7], in [8], in assay [9], in assay [10], in assay [11] and in assay [12] was more than 100 µM each time.
As to `CCOC(=O)C1C(c2ccc(OC)cc2)c2c([nH][nH]c2=O)CC1(O)OCC` (centres undefined), the TGI in assay [1], in [2], in assay [3], in assay [4], in assay [5] and in assay [6] was more than 100 µM throughout. In addition, the TGI in assay [7], in assay [8], in assay [9], in [10], in assay [11] and in assay [12] was more than 100 µM each time.
For the compound `[N-]=[NH+]CC(=O)OC(COCc1ccccc1)COCc1ccccc1`, the TGI in assay [13] is more than 100 µM; in [1], more than 100 µM; in assay [2] it was more than 100 µM; in assay [3] it was 86.6 µM; in assay [4] it was more than 100 µM; in assay [5], more than 100 µM. Moreover, the TGI in assay [6], in [7], in [8], in assay [9], in assay [10] and in [11] was more than 100 µM throughout. In assay [12], this compound yielded a TGI of 63 µM.
`CSC1=N/C(=C\c2ccco2)C(=O)N1CN1CCCCC1`: the TGI in [1], in assay [2], in assay [4], in [5], in assay [6] and in [7] was more than 100 µM each time. In addition, the TGI in assay [8], in assay [9], in assay [10], in [11] and in [12] was more than 100 µM in each case.
Regarding `O=C(O)c1ccc2c(c1)CC1(C2)Cc2ccccc2C1=O` (centres undefined), the TGI in [13], in assay [1], in assay [2], in [4], in [5] and in assay [6] was more than 100 µM each time. Further, the TGI in [7], in [8], in assay [9], in assay [10], in assay [11] and in assay [12] was more than 100 µM in each case.
For `O=C(C1C(c2ccccc2)N1C(c1ccccc1)c1ccccc1)C1C(c2ccccc2)N1C(c1ccccc1)c1ccccc1` (centres undefined), the TGI is 16.6 µM in assay [1]; 15.8 µM in assay [2]; 49.8 µM in [4]; 53.7 µM in [5]; 33.4 µM in assay [8]; more than 100 µM in assay [9]. Besides, the TGI in assay [10] is 30.2 µM; in assay [11], more than 100 µM; in assay [12], 38.4 µM.
Take `Nc1cn(Cc2ccccc2)c2nc(/C=C3/C=CC=CC3=O)c(O)n12`: the TGI in assay [13], in assay [2], in [3], in assay [4], in [5] and in [6] was more than 100 µM throughout. For the same compound, the TGI in [7], in [8], in assay [9], in assay [10], in assay [11] and in assay [12] was more than 100 µM throughout.
Turning to `CNn1c(C)n[nH]c1=O`, the TGI in [1], in assay [2], in [3], in [4], in assay [5] and in assay [6] was more than 100 µM throughout. In addition, the TGI in assay [7], in assay [8], in [9], in [11] and in [12] was more than 100 µM throughout.
For `COc1ccc(C2=C(N)c3c(OC)cccc3C2=O)cc1`, the TGI in assay [13] was 31.5 µM; in [1] it was more than 100 µM; in assay [2], more than 100 µM; in assay [3], more than 100 µM; in [5], more than 100 µM; in assay [6], more than 100 µM. Moreover, the TGI in [7], in [8], in assay [9], in assay [10], in [11] and in assay [12] was more than 100 µM throughout.
Consider `O=C1CCC2CCC1C2` (centres undefined), for which the TGI in assay [13], in [2], in assay [3], in [4], in assay [5] and in assay [6] was more than 100 µM throughout. The TGI in [7], in assay [8], in assay [9], in assay [10], in [11] and in assay [12] was more than 100 µM each time.
In the case of `COC(=O)c1ccccc1/C=C1\Cc2cc(C)cc(C)c2C1=O`, the TGI in assay [13], in assay [1], in assay [2], in assay [4], in assay [5] and in assay [6] was more than 100 µM in each case. The TGI in assay [7], in [8], in assay [9], in assay [10] and in assay [11] was more than 100 µM throughout.
On to `C=C1CC(C)(COc2ccc3ccc(=O)oc3c2)OC1=O` (centres undefined), for which the TGI was more than 20.7 µM in [1]; 6.38 µM in assay [2]; 7.84 µM in assay [3]; 6.65 µM in assay [4]; 16.2 µM in assay [5]; 8.71 µM in assay [6]. The TGI was determined as 17.2 µM in assay [7]; 2.46 µM in assay [8]; 20.8 µM in assay [9]; 9.66 µM in assay [10]; 51.9 µM in assay [11]; 29.5 µM in assay [12].
